The values below come from patent US12371464B2, “Polypeptides and uses thereof” (MEDIMMUNE LIMITED, priority 2020, dated 2025).

Numbered stars: 1 amine (or outer) side, 2 acyl side, 3 side chain; on linkers, the order of the positions; unused ones are H or OH. Bridge positions count the residues as written; N and C are the ends. Square brackets hold non-standard residues; d marks the D form. Side chains are listed from the residue outwards. Ends that are not written are not given here. Peptide text beside a SMILES is read from it. * marks the point of attachment. C20 diacid = O=C(O)CCCCCCCCCCCCCCCCCCC(=O)*; C18 diacid = O=C(O)CCCCCCCCCCCCCCCCC(=O)*; γGlu = O=C(O)[C@H](CCC(=O)[*:2])N[*:1]; αMeF = C[C@](N)(Cc1ccccc1)C(=O)O; Dab = NCC[C@H](N)C(=O)O; Aib = CC(C)(N)C(=O)O

The EC50 is the concentration giving half of the maximal effect.

For data set [1], the target named is T1, human calcitonin receptor (hCTR) (Homo sapiens, UniProt P30988).
T1 construct: expressed in transfected cells
T1 sequence (P30988 25-474): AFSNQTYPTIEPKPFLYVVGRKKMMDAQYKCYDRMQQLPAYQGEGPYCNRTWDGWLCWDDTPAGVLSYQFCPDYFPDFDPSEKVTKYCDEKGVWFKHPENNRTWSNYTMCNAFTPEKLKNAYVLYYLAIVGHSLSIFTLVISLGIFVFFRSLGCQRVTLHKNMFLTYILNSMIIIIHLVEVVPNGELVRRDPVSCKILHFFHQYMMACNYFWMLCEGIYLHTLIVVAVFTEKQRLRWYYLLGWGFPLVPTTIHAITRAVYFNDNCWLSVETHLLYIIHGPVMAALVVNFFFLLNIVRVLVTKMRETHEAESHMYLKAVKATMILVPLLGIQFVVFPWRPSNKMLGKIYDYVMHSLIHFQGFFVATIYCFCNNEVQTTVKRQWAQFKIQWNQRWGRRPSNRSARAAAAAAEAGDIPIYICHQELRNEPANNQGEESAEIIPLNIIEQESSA
Briefly: cAMP production in 1321N1 cells with stable recombinant expression of human calcitonin receptor (hCTR). The conditions noted are these: 1321N1 cells expressing human calcitonin receptor. Type of data set: cell-based. As to the method:
(§1) The functional activities of lipidated pramlintide analogue peptides, such as cAMP production, were tested in 1321N1 cell line with stable recombinant expression of human calcitonin receptor (hCTR) or human amylin receptor (calcitonin receptor co-expressed with receptor activity modifying protein, RAMP3) (hAMYR3) or HEK cells with stable recombinant expression of rat calcitonin receptor (rat CTR) or rat amylin receptor (calcitonin receptor co-expressed with receptor activity modifying protein, RAMP3) (Rat AMYR3).
(§2) Cryopreserved cell stock was thawed rapidly in a water-bath, suspended in assay buffer (0.1% BSA (Sigma #A3059) in HBSS (Sigma #H8264) with 25 mM HEPES, pH 7.4 and containing 0.5 mM IB MX (Sigma #17018)) and spun at 240×g for 5 minutes. Cells were re-suspended in assay buffer at a batch-dependent optimized concentration (e.g. hCTR cells at 0.125×10^5 cells/mL, hAMYR3 cells at 0.125×10^5 cells/mL, rat CTR cells at 1×10^5 cells/mL, rat AMYR3 at 2×10^5 cells/mL).
(§3) The test peptide stock was prepared in DMSO and diluted in assay buffer to reach stated concentrations and transferred in duplicates into a 384-black shallow well microtitre assay plate (Corning #3676). Cells were added to the assay plate, incubated at room temperature for 30 minutes and the CAMP level measured using CAMP dynamic 2 HTRF kit (Cisbio, Cat #62AM4PEJ), following the two step protocol as per manufacturer's recommendations. The plates were read on an Envision (Perkin Elmer) using excitation wavelength of 320 nm and emission wavelengths of 620 nm & 665 nm.
(§4) Data was transformed to % Delta F as described in the manufacturer's guidelines and analyzed as percent activation of maximal amylin or calcitonin effect by 4-parameter logistic fit to determine EC50 values. The selectivity of a peptide to hAMYR vs hCTR is defined as a ratio of EC50 values at the two receptors.

For data set [2], the target named is T2, human amylin receptor (calcitonin receptor co-expressed with receptor activity modifying protein, RAMP3) (hAMYR3) (Homo sapiens, UniProt O60896+P30988).
T2 construct: expressed in transfected cells
T2 sequence (P30988 25-474): T1 sequence (P30988 25-474)
T2 sequence (O60896 24-148 partner): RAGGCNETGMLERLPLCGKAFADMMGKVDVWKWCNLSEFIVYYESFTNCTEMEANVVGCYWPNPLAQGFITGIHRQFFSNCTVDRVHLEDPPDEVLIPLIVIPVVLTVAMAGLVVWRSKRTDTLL
Briefly: cAMP production in 1321N1 cells with stable recombinant expression of human amylin receptor (hAMYR3). The conditions noted are these: for Ratio (selectivity hAMYR vs hCTR, ratio of EC50 values at the two receptors): EC50 hCTR / EC50 hAMYR3; for EC50: cAMP production, 1321N1 cells expressing human amylin3 receptor. In kind it is cell-based. The procedure:
as §1, §2, §3, §4
For orientation: Changes in cAMP serve as a functional read-out for many G protein-coupled receptors.

The conditions of data set [3]: cited from earlier work.

For `CC[C@H](C)[C@H](NC(=O)[C@@H]1CCCN1C(=O)CNC(=O)[C@](C)(Cc1ccccc1)NC(=O)[C@H](CC(N)=O)NC(=O)[C@H](CC(N)=O)NC(=O)[C@H](CO)NC(=O)[C@H](CO)NC(=O)[C@H](Cc1c[nH]cn1)NC(=O)[C@H](CCCNC(=N)N)NC(=O)[C@H](CC(C)C)NC(=O)[C@H](Cc1ccccc1)NC(=O)[C@H](CC(N)=O)NC(=O)[C@H](C)NC(=O)[C@H](CC(C)C)NC(=O)[C@H](CCCNC(=N)N)NC(=O)[C@H](CCC(N)=O)NC(=O)[C@@H](NC(=O)[C@H](C)NC(=O)[C@@H]1CSSC[C@H](NC(=O)[C@@H](N)CCCCNC(=O)CC[C@H](NC(=O)CCCCCCCCCCCCCCCCC(=O)O)C(=O)O)C(=O)N[C@@H](CC(N)=O)C(=O)N[C@@H]([C@@H](C)O)C(=O)N[C@@H](C)C(=O)N[C@@H]([C@@H](C)O)C(=O)N1)[C@@H](C)O)C(=O)N[C@@H](CC(C)C)C(=O)N1CCC[C@H]1C(=O)N1CCC[C@H]1C(=O)N[C@H](C(=O)N[C@@H](CCC(=O)O)C(=O)N[C@H](C(=O)NCC(=O)N[C@@H](CO)C(=O)N[C@@H](CC(N)=O)C(=O)N[C@H](C(=O)N[C@@H](Cc1ccc(O)cc1)C(N)=O)[C@@H](C)O)C(C)C)[C@@H](C)O` [Peptide 16, K(γE-C18diacid)[CNTATC]ATQRLANFLRHSSNN(αMePhe)GPILPPTEVGSNTY-amide] (H-K([γGlu-C18 diacid])CNTATCATQRLANFLRHSSNN[αMeF]GPILPPTEVGSNTY-NH2; disulfide 2-7; N-terminus assumed), the EC50 in data set [1] is 2.02 nM.

For `CC[C@H](C)[C@H](NC(=O)[C@@H]1CCCN1C(=O)CNC(=O)[C@H](Cc1ccccc1)NC(=O)[C@H](CC(N)=O)NC(=O)C(C)(C)NC(=O)[C@H](CO)NC(=O)[C@H](CO)NC(=O)[C@H](Cc1c[nH]cn1)NC(=O)[C@@H](NC(=O)[C@H](CC(C)C)NC(=O)[C@H](Cc1ccccc1)NC(=O)[C@H](CC(N)=O)NC(=O)[C@H](C)NC(=O)[C@H](CC(C)C)NC(=O)[C@H](CCCNC(=N)N)NC(=O)[C@H](CCC(N)=O)NC(=O)[C@@H](NC(=O)[C@H](C)NC(=O)[C@@H]1CSSC[C@H](NC(=O)[C@H](CCCCN)NC(=O)CC[C@H](NC(=O)CCCCCCCCCCCCCCCCC(=O)O)C(=O)O)C(=O)N[C@@H](CC(N)=O)C(=O)N[C@@H]([C@@H](C)O)C(=O)N[C@@H](C)C(=O)N[C@@H]([C@@H](C)O)C(=O)N1)[C@@H](C)O)C(C)C)C(=O)N[C@@H](CC(C)C)C(=O)N1CCC[C@H]1C(=O)N1CCC[C@H]1C(=O)N[C@H](C(=O)N[C@@H](CCCNC(=N)N)C(=O)N[C@H](C(=O)NCC(=O)N[C@@H](CO)C(=O)N[C@@H](CC(N)=O)C(=O)N[C@H](C(=O)N[C@@H](Cc1ccc(O)cc1)C(N)=O)[C@@H](C)O)C(C)C)[C@@H](C)O` [Peptide 71, C18diacid-γE-K[CNTATC]ATQRLANFLVHSS(Aib)NFGPILPPTRVGSNTY-amide] ({C18 diacid-γGlu}-KCNTATCATQRLANFLVHSS[Aib]NFGPILPPTRVGSNTY-NH2; disulfide 2-7), the results for the half-maximal effective concentration (EC50) in data set [1] and in data set [2] were 1.39 nM and 0.211 nM, respectively. For the same compound, in data set [2], the “Ratio (selectivity hAMYR vs hCTR, ratio of EC50 values at the two receptors)” value worked out at 7.

For `CC[C@H](C)[C@H](NC(=O)[C@@H]1CCCN1C(=O)CNC(=O)[C@H](Cc1ccccc1)NC(=O)[C@H](CC(N)=O)NC(=O)C(C)(C)NC(=O)[C@H](CO)NC(=O)[C@H](CO)NC(=O)[C@H](Cc1c[nH]cn1)NC(=O)[C@@H](NC(=O)[C@H](CC(C)C)NC(=O)[C@H](Cc1ccccc1)NC(=O)[C@H](CC(N)=O)NC(=O)[C@H](C)NC(=O)[C@H](CC(C)C)NC(=O)[C@H](CCCNC(=N)N)NC(=O)[C@H](CCC(N)=O)NC(=O)[C@@H](NC(=O)[C@H](C)NC(=O)[C@@H]1CSSC[C@H](NC(=O)[C@@H](N)CCCCNC(=O)CC[C@H](NC(=O)CC[C@H](NC(=O)CCCCCCCCCCCCCCCCC(=O)O)C(=O)O)C(=O)O)C(=O)N[C@@H](CC(N)=O)C(=O)N[C@@H]([C@@H](C)O)C(=O)N[C@@H](C)C(=O)N[C@@H]([C@@H](C)O)C(=O)N1)[C@@H](C)O)C(C)C)C(=O)N[C@@H](CC(C)C)C(=O)N1CCC[C@H]1C(=O)N1CCC[C@H]1C(=O)N[C@H](C(=O)NC(C)(C)C(=O)N[C@H](C(=O)NCC(=O)N[C@@H](CO)C(=O)N[C@@H](CC(N)=O)C(=O)N[C@H](C(=O)N[C@@H](Cc1ccc(O)cc1)C(N)=O)[C@@H](C)O)C(C)C)[C@@H](C)O` [Peptide 89, K(γE-γE-C18diacid)[CNTATC]ATQRLANFLVHSS(Aib)NFGPILPPT(Aib)VGSNTY-amide] (H-K([γGlu-γGlu-C18 diacid])CNTATCATQRLANFLVHSS[Aib]NFGPILPPT[Aib]VGSNTY-NH2; disulfide 2-7; N-terminus assumed), in data set [2], the “Ratio (selectivity hAMYR vs hCTR, ratio of EC50 values at the two receptors)” value is given as 18.

As for `CC[C@H](C)[C@H](NC(=O)[C@H](C)NC(=O)[C@@H]1CCCN1C(=O)[C@H](Cc1ccccc1)NC(=O)[C@H](CC(N)=O)NC(=O)[C@@H]1CCCN1C(=O)[C@H](CO)NC(=O)[C@H](CO)NC(=O)[C@H](Cc1c[nH]cn1)NC(=O)[C@@H](NC(=O)[C@H](CC(C)C)NC(=O)[C@H](Cc1c[nH]c2ccccc12)NC(=O)[C@H](CC(N)=O)NC(=O)[C@H](C)NC(=O)[C@H](CC(C)C)NC(=O)[C@H](CCCNC(=N)N)NC(=O)[C@H](CCC(N)=O)NC(=O)[C@@H](NC(=O)[C@H](C)NC(=O)[C@@H]1CSSC[C@H](NC(=O)[C@@H](N)CCCCNC(=O)CC[C@H](NC(=O)CC[C@H](NC(=O)CCCCCCCCCCCCCCCCCCC(=O)O)C(=O)O)C(=O)O)C(=O)N[C@@H](CC(N)=O)C(=O)N[C@@H](C)C(=O)N[C@@H](C)C(=O)N[C@@H]([C@@H](C)O)C(=O)N1)[C@@H](C)O)C(C)C)C(=O)N[C@@H](CC(C)C)C(=O)N[C@@H](CO)C(=O)N1CCC[C@H]1C(=O)N[C@H](C(=O)N[C@@H](CC(N)=O)C(=O)N[C@H](C(=O)NCC(=O)N[C@@H](CO)C(=O)N[C@@H](CC(N)=O)C(=O)N[C@H](C(=O)N[C@@H](Cc1ccc(O)cc1)C(N)=O)[C@@H](C)O)C(C)C)[C@@H](C)O` [Peptide 120] (H-K([γGlu-γGlu-C20 diacid])CNAATCATQRLANWLVHSSPNFPAILSPTNVGSNTY-NH2; disulfide 2-7; N-terminus assumed), the values for the EC50 in data set [1] and in data set [2] were 10.7 nM and 1.77 nM, respectively.

As for `CC[C@H](C)[C@H](NC(=O)[C@H](C)NC(=O)[C@@H]1CCCN1C(=O)[C@H](Cc1ccccc1)NC(=O)[C@H](CC(N)=O)NC(=O)C(C)(C)NC(=O)[C@H](CO)NC(=O)[C@H](CO)NC(=O)[C@H](Cc1c[nH]cn1)NC(=O)[C@@H](NC(=O)[C@H](CC(C)C)NC(=O)[C@H](Cc1ccccc1)NC(=O)[C@H](CC(N)=O)NC(=O)[C@H](C)NC(=O)[C@H](CC(C)C)NC(=O)[C@H](CCCNC(=N)N)NC(=O)[C@H](CCC(N)=O)NC(=O)[C@@H](NC(=O)[C@H](C)NC(=O)[C@@H]1CSSC[C@H](NC(=O)[C@@H](N)CCCCNC(=O)CC[C@H](NC(=O)CC[C@H](NC(=O)CCCCCCCCCCCCCCCCCCC(=O)O)C(=O)O)C(=O)O)C(=O)N[C@@H](CC(N)=O)C(=O)N[C@@H]([C@@H](C)O)C(=O)N[C@@H](C)C(=O)N[C@@H]([C@@H](C)O)C(=O)N1)[C@@H](C)O)C(C)C)C(=O)N[C@@H](CC(C)C)C(=O)N[C@@H](CO)C(=O)N1CCC[C@H]1C(=O)N[C@H](C(=O)N[C@@H](CC(N)=O)C(=O)N[C@H](C(=O)NCC(=O)N[C@@H](CO)C(=O)N[C@@H](CCN)C(=O)N[C@H](C(=O)N[C@@H](Cc1ccc(O)cc1)C(N)=O)[C@@H](C)O)C(C)C)[C@@H](C)O` [Peptide 125, K(γE-γE-C20diacid)[CNTATC]ATQRLANFLVHSS(Aib)NFPAILSPTNVGS(Dab)TY-amide] (H-K([γGlu-γGlu-C20 diacid])CNTATCATQRLANFLVHSS[Aib]NFPAILSPTNVGS[Dab]TY-NH2; disulfide 2-7 (inferred)), in data set [2], the EC50 came out at 1.2 nM.

In the case of “amylin (KCNTATCATQRLANFLVHSSNNFGAILSSTNVGSNTY; not fully specified (C-terminus, bridges); cysteine pairing not given here; UniProt P10997 34-70, looked up) [native peptide hormone of which pramlintide is a synthetic analogue]”, the “terminal half-life of amylin in rats” value in data set [3] was “around 13 minutes”.
